In patent publication US9724380B2, “Method and compositions for synchronizing time of insemination in gilts” (JBS UNITED ANIMAL HEALTH II LLC, priority 2012, dated 2017):

Tested on: gilts
Assay: Example 1: estrus observation (boar exposure, back pressure) after triptorelin gel
Assay type: in vivo, swine
Details: 200 mcg T at 120 h post-MATRIX; raw average; PTK 1-07 (rep 3)
Procedure: All gilts were individually fed MATRIX® as a top-dress for 14 days at the recommended rate of 15 mg/gilt/day. Gilts were withdrawn from MATRIX® feeding (last top feed in the morning on Day 0) and allotted to treatments. Controls were treated with a 1.2% methylcellulose gel formulation without triptorelin at 96 hours following MATRIX® withdrawal (last top-dress). The remaining gilts received 200 mcg triptorelin, as the acetate, in a 1.2% methylcellulose gel formulation intravaginally at various times after MATRIX® withdrawal. The four treatments were: 1) vehicle gel (VG) treatment at 96 hours after MATRIX® withdrawal, 2) triptorelin gel (TG) treatment at 96 hours after MATRIX® withdrawal, 3) TG treatment at 120 hours after MATRIX® withdrawal and 4) TG treatment at 144 hours after MATRIX® withdrawal. All gilts were monitored for their estrous and ovulatory status as described below. Gilts included in replicate 1 were selected from terminal line commercial production gilts located in grow/finish barns. Sexual maturity, as indicated by one or more estrous periods, was not verified prior to the start of MATRIX® feeding. Gilts included in replicate 2 were selected from a maternal line gilt population. Sexual maturity was verified by at least one estrous period verified and recorded prior to starting MATRIX® feeding. […]
Data were analyzed using the Mixed Models procedures of SAS. […]

SMILES: CC(C)C[C@H](NC(=O)[C@@H](Cc1c[nH]c2ccccc12)NC(=O)[C@H](Cc1ccc(O)cc1)NC(=O)[C@H](CO)NC(=O)[C@H](Cc1c[nH]c2ccccc12)NC(=O)[C@H](Cc1c[nH]cn1)NC(=O)[C@@H]1CCC(=O)N1)C(=O)N[C@@H](CCCNC(=N)N)C(=O)N1CCC[C@H]1C(=O)NCC(N)=O [T, pGlu-His-Trp-Ser-Tyr-D-Trp-Leu-Arg-Pro-Gly-NH2]
- Estrous Expression (%): 100.0%
